Like-named read-outs stand apart in the source and are kept apart here.
Tests used:
[1] = test system: histamine-induced dyspnea; experiment: Bronchodilator (in vivo) Guinea Pig Dyspnea; details: oral, one hour before histamine challenge
In short: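 Fasted, unanesthetized guinea pigs (250-350 g) received the test drug orally one hour before exposure to an aerosolized 0.1% histamine solution. Onset of dyspnea was recorded, and data were expressed as number tested over number survived.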

ELAM-1 = ELAM-1 (Homo sapiens, UniProt P16581); experiment: cell-based
Chain of ELAM-1 (P16581 22-610): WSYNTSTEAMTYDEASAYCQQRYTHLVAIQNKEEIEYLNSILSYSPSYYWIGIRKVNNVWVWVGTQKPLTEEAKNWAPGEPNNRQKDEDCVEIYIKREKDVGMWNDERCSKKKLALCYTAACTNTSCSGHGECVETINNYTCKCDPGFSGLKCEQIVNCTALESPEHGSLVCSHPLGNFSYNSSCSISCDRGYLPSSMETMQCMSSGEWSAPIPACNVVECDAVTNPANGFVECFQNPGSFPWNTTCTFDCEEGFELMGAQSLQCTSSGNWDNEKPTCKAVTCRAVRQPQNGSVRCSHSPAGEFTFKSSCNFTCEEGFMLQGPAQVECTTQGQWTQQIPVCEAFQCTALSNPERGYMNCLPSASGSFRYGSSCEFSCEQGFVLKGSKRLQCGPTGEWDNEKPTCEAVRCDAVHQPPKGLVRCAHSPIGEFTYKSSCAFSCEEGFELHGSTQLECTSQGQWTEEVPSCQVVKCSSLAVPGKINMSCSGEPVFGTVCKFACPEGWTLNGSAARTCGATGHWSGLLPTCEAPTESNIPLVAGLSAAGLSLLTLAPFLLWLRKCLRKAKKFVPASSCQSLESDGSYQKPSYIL
Method: Cell adhesion to ELAM-1 was measured essentially as described previously (Pal et al., J. Biomed. Res. 2: 53, 1992). Undifferentiated HL-60 leukemia cells were prelabelled for 30 minutes with 1 μM calcein AM in DPBS without calcium or magnesium, and the cells were washed twice with the same medium before addition to 96-well plates containing monolayers of mouse L cells (5×10^4 cells/well) transfected with cDNA for the adhesion molecule ELAM-1. Adhesion was allowed to proceed for 30 minutes at room temperature before washing and quantitation of the remaining fluorescent HL-60 cells as described above.
ELAM-1 (E-selectin) is a member of the selectin class of adhesion molecules.

[2] = test system: LOX human melanoma cell adhesion to human vitronectin; experiment: LOX cell adhesion to vitronectin; format: cell-based; details: read-out: Vitronectin IC50
Method: (§1) Adhesion assays were run essentially as described previously (Pai et al., J. Biomed. Res. 2: 53, 1992). 96-well plates were coated with human fibronectin (140 ng/well), human vitronectin (75 ng/well), human collagen I (100 ng/well), human collagen IV (100 ng/well), human fibrinogen (1 μg/well), murine laminin (600 ng/well), or polylysine, and incubated overnight in a humidified 37° C. incubator. Excess fibronectin or other substrate was then removed and 0.2 ml of 2 mg/ml bovine serum albumin (BSA)in Dulbecco's phosphate-buffered saline (DPBS) was added to each well, incubated for 2 hours at 37° C., and removed. LOX human melanoma cells, M27 murine lung carcinoma cells or B16F10 mouse melanoma cells were detached from tissue culture flasks with RPMI medium containing 0.2M urea and 10 mM EDTA, and 0.18 ml of cells were added to each well to a final cell concentration of 1×10^5 cells/well. For inhibition studies 20 μl of 10× compound was added to the wells prior to cell addition. Cells were allowed to adhere for 1 hour at 37° C. The wells were then gently washed twice with 0.2 ml DPBS. The fluorescent dye calcein AM (Molecular Probes, Eugene Oreg.) in DPBS (0.1 ml of 1 μM) was added to each well, and the plates were incubated for 1 hour at room temperature. Adherent cells were quantitated by reading the fluorescence on a Cytofluor 2300 fluorescent plate reader (Millipore) at 485 nm excitation and 530 nm emission.

[3] = test system: LOX human melanoma cell adhesion to human fibrinogen; experiment: LOX cell adhesion to fibrinogen; format: cell-based; details: read-out: Fibrinogen IC50
Method: as §1

LOX human melanoma cells = experiment: Tumor cell invasion through collagen/fibronectin coated membranes; format: cell-based; details: for IC50: Homo sapiens, 5 hours; for inhibition of in vitro tumor cell invasion: fibronectin/collagen matrix
Method: […] Cell Invasion Through Collagen/Fibronectin Coated Membranes:
Nucleopore polycarbonate membranes (8 μm pore size) were coated with 0.05 ml of type I collagen and allowed to dry overnight. 210 μl of serum free DMEM with BSA was added to each Boyden chamber. Membranes were placed in chambers and upper chambers were screwed on. Human fibronectin (50 μl of 0.1 mg/ml solution in DMEM with BSA) was added to the top chamber and allowed to sit on membranes for 1 hour at room temperature. Compounds (50 μl) at 10× concentration in DMEM with BSA were added to the chambers. LOX melanoma cells were detached from flasks with trypsin/EDTA solution and resuspended in RPMI with 10% fetal bovine serum. Cells were centrifuged, washed 2× with DMEM with BSA, and resuspended in 10 ml of DMEM with BSA. LOX cells (0.45 ml of 7.8×10^5 cells per ml) were added to each chamber and chambers were incubated for 5 hours at 37° C. The medium was removed from the upper chamber by aspiration, the top chamber was unscrewed, and the membrane was removed. The membrane was inverted, pinned to a dissecting tray, and fixed with Diff Quik fixative for 3 minutes The fixative was then removed and Diff Quik Stain was added for 2 minutes. The stain was decanted and membranes were rinsed with distilled water. Membranes were inverted onto glass slides, and non-invading cells were wiped away with a cotton swab. Permount was added to the slide and the membrane was covered with a cover slip. The number of cells that invaded was quantitated on a Nikon TMS microscope with C-2 Image Analyzer software (Olympus Corp.).
The greater potency of the compounds in this assay (IC50 for compound B<400 nM) may result from the longer duration of this assay (5 hours) relative to the fibronectin adhesion assay (1 hour).

[4] = test system: B16-F10 mouse melanoma cell adhesion to fibronectin; experiment: B16-F10 melanoma cell adhesion to fibronectin; format: cell-based; details: read-out: B16 FN IC50
Method: as §1

[5] = test system: LOX human melanoma cell adhesion to polylysine; experiment: LOX melanoma cell adhesion to polylysine; format: cell-based; details: read-out: Poly Lys IC50
[6] = test system: LOX human melanoma cell adhesion to human collagen IV; experiment: LOX cell adhesion to collagen IV; format: cell-based; details: read-out: Collagen IV IC50
Method: as §1

[7] = Calcein cytotoxicity assay; format: cell-based; details: human, lox melanoma cells; for CC50 at 2 h / CC50 at 6 h: calcein AM assay; for CC50 at 2 h: read-out: 2 Hr Tox LD50; for CC50 at 6 h: read-out: 6 Hr Tox LD50

| SMILES | responders at 100 mg/kg ([1]; Cavia porcellus, 1 h, 100 mg/kg, read-out: DYSP survivors (converted)) [%] | IC50 (ELAM-1) [µM] | IC50 [2] [µM] | IC50 [3] [µM] | IC50 (LOX human melanoma cells; read-out: Invasion IC50) [nM] | IC50 (LOX human melanoma cells; read-out: Invasion IC50 (text)) [nM] | inhibition of in vitro tumor cell invasion (LOX human melanoma cells) | IC50 [4] [µM] | IC50 [5] [µM] | IC50 [6] [µM] | CC50 at 2 h ([7]; 2 hours) [µM] | selectivity ratio at 2 h ([7]; 2 hours, calcein AM, read-out: selectivity for blockade of fibronectin adhesion vs. cytotoxicity (2 Hour Tox)) | CC50 at 6 h ([7]; 6 hours) [µM] | selectivity ratio at 6 h ([7]; 6 hours, calcein AM, read-out: selectivity for blockade of invasion vs. cytotoxicity (6 Hour Tox)) | DYSP survivors ([1]; 10 mg/kg) | DYSP survivors ([1]; 50 mg/kg) | DYSP survivors ([1]; 100 mg/kg) |
| --- | --- | --- | --- | --- | --- | --- | --- | --- | --- | --- | --- | --- | --- | --- | --- | --- | --- |
| COc1ccc(C2=C3CC4CCC(N4)C3c3ccccc32)cc1 (centres unmarked) [Compound B] | 0 | > 50 | 16.8 | 9.9 | < 400 | < 400 | inhibit in vitro tumor cell invasion through a fibronectin/collagen matrix | 14.7 | 22.3 | 16.2 | 74.5 | 15 | 24.6 | > 61 |  |  |  |
| Cc1ccc(C2=C3CC4CCC(C3c3ccccc32)N4C)cc1 (centres unmarked) [J] |  | > 50 | 12.8 | 13.5 | 480 |  | inhibit in vitro tumor cell invasion through a fibronectin/collagen matrix | 15.9 | 53.2 | 10 | 58.4 |  | 30.6 |  | 0/3 | 1/3 | 3/3 |
| CN1C2CCC1C1C(=C(c3ccc(Cl)cc3)c3ccccc31)C2 (centres unmarked) [C] |  | > 50 | 5.9 | 6.2 | 660 |  | inhibit in vitro tumor cell invasion through a fibronectin/collagen matrix | 15.1 | 248 | 9.9 | 85.3 |  | 22.5 |  |  |  | 0/3 |

— US5461057A, “Hydro-ethano-indeno-pyridines” (priority 1994, dated 1995)
